Patent publication US11691980B2, “Liphagal analog and multi-targeted kinase inhibitor containing liphagal or analog thereof” (TOHOKU UNIVERSITY, priority 2017, dated 2023)

How the values were obtained:
Assay type in all cases: biochemical
[1] = target: T1, CDK2/CycE1 (Homo sapiens, UniProt P24941); assay: mobility shift assay
T1 construct: purchased Carna Biosciences

[2] = target: T2, FAK (Homo sapiens, UniProt Q05397); assay: mobility shift assay
T2 construct: purchased Carna Biosciences

[3] = target: T3, EPHB4 (Homo sapiens, UniProt P54760); assay: mobility shift assay
T3 construct: purchased Carna Biosciences

[4] = target: PIK3α (PIK3CA/PIK3R1) (Homo sapiens, UniProt P42336); assay: IC50 by mobility shift assay; settings: Table 2, mobility shift assay; read-out: IC50 (μM), Kinase PIK3CA/PIK3RI
Description: The compounds obtained in Production Examples described above were each measured for its IC50 value for PIK3α (PIK3CA/PIK3R1) by mobility shift assay. The mobility shift assay is a method involving separating and quantifying a substrate and a phosphorylated substrate on the basis of mobility in a capillary. Each compound was mixed at various concentrations with an assay buffer (20 mM HEPES, 2 mM DTT, 25 μM sodium cholate, 75 mM NaCl, 20 μM cantharidine) together with 21 nM PI3K, 1,000 nM phosphatidyl inositol, 50 μM ATP, and 5 mM MgCl, and the mixture was subjected to a reaction at room temperature for 5 hours, followed by the mobility shift assay. The test was repeated twice. The enzymatic reaction was assessed on the basis of a product ratio (P/(P+S)) calculated from the height of a substrate peptide peak (S) and the height of a phosphorylated peptide peak (P). An inhibition rate was calculated from a signal obtained when each compound was added, with the average signal of a control containing all reaction components being defined as 0% inhibition and the average signal of a background (no enzyme added) being defined as 100% inhibition.
The compounds produced in Production Examples described above were each assessed for its inhibitory activity against CDK7, PIM2, and PI3K by mobility shift assay. In addition, a combination showing the highest inhibitory activity against each kinase is indicated by italics.

[5] = target: T4, BRK (Homo sapiens, UniProt Q13882); assay: mobility shift assay
T4 construct: purchased Carna Biosciences

[6] = target: T5, DYRK1A (Homo sapiens, UniProt Q13627); assay: mobility shift assay
T5 construct: purchased Carna Biosciences

[7] = target: T6, CK1y3 (Homo sapiens, UniProt Q9Y6M4); assay: mobility shift assay
T6 construct: purchased Carna Biosciences

[8] = target: T7, p70S6Kβ (Homo sapiens, UniProt Q9UBS0); assay: mobility shift assay
T7 construct: purchased Carna Biosciences

[9] = target: T8, MARK2 (Homo sapiens, UniProt Q7KZI7); assay: mobility shift assay
T8 construct: purchased Carna Biosciences

[10] = target: T9, FGR (Homo sapiens, UniProt P09769); assay: mobility shift assay
T9 construct: purchased Carna Biosciences

[11] = target: T10, FTI1 (Homo sapiens, UniProt P17948); assay: mobility shift assay
T10 construct: purchased Carna Biosciences

[12] = target: T11, LTK (Homo sapiens, UniProt P29376); assay: mobility shift assay
T11 construct: purchased Carna Biosciences

[13] = target: T12, PDHK4 (Homo sapiens, UniProt Q16654); assay: mobility shift assay
T12 construct: purchased Carna Biosciences

[14] = target: T13, BRSK2 (Homo sapiens, UniProt Q8IWQ3); assay: mobility shift assay
T13 construct: purchased Carna Biosciences

[15] = target: T14, CaMK2β (Homo sapiens, UniProt Q13554); assay: mobility shift assay
T14 construct: purchased Carna Biosciences

[16] = target: T15, PKCl (Homo sapiens, UniProt P41743); assay: mobility shift assay
T15 construct: purchased Carna Biosciences

[17] = target: T16, MRCKβ (Homo sapiens, UniProt Q9Y5S2); assay: mobility shift assay
T16 construct: purchased Carna Biosciences

[18] = target: T17, MAPKAPK3 (Homo sapiens, UniProt Q16644); assay: mobility shift assay
T17 construct: purchased Carna Biosciences

[19] = target: T18, FGFR4(V550L) (Homo sapiens, UniProt P22455, V550L); assay: mobility shift assay
T18 construct: purchased Carna Biosciences

[20] = target: T19, KIT(D816Y) (Homo sapiens, UniProt P10721, D816Y); assay: mobility shift assay
T19 construct: purchased Carna Biosciences

[21] = target: T20, PKCβ1 (Homo sapiens, UniProt P05771); assay: mobility shift assay
T20 construct: purchased Carna Biosciences

[22] = target: T21, JNK2 (Homo sapiens, UniProt P45984); assay: mobility shift assay
T21 construct: purchased Carna Biosciences

[23] = target: T22, p38γ (Homo sapiens, UniProt P53778); assay: mobility shift assay
T22 construct: purchased Carna Biosciences

[24] = target: T23, MET (Homo sapiens, UniProt P08581); assay: mobility shift assay
T23 construct: purchased Carna Biosciences

[25] = target: T24, DYRK1B (Homo sapiens, UniProt Q9Y463); assay: mobility shift assay
T24 construct: purchased Carna Biosciences

[26] = target: T25, NEK2 (Homo sapiens, UniProt P51955); assay: mobility shift assay
T25 construct: purchased Carna Biosciences

[27] = target: T26, MET(M125DT) (Homo sapiens, UniProt P08581, M1250T); assay: mobility shift assay
T26 construct: purchased Carna Biosciences

[28] = target: T27, M88K1 (Homo sapiens, UniProt Q9UPE1); assay: mobility shift assay
T27 construct: purchased Carna Biosciences

[29] = target: T28, EGFR(d746-750/T790M) (Homo sapiens, UniProt P00533, DEL746-750/T790M); assay: mobility shift assay
T28 construct: purchased Carna Biosciences

[30] = target: T29, JNK1 (Homo sapiens, UniProt P45983); assay: mobility shift assay
T29 construct: purchased Carna Biosciences

[31] = target: T30, NEK7 (Homo sapiens, UniProt Q8TDX7); assay: mobility shift assay
T30 construct: purchased Carna Biosciences

[32] = target: T31, EML4-ALK (Homo sapiens, UniProt Q9UM73); assay: mobility shift assay
T31 construct: EML4 (fusion partner, Q9HC35); purchased Carna Biosciences; the other entry of the earlier key: EML4 (Q9HC35, Echinoderm microtubule-associated protein-like 4)

[33] = target: T32, Etk2 (Homo sapiens, UniProt P28482); assay: mobility shift assay
T32 construct: purchased Carna Biosciences
T32 sequence (P28482 whole entry): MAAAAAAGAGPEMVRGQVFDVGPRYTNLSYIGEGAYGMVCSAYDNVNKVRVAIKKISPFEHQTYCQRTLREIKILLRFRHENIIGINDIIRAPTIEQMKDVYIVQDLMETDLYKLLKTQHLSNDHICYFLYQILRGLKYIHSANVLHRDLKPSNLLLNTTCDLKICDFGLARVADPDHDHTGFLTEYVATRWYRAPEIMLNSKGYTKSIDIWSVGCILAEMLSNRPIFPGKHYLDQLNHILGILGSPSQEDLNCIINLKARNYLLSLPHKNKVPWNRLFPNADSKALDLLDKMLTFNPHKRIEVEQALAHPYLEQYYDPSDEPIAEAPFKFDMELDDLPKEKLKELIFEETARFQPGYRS

T19 sequence (P10721 26-976 D816Y): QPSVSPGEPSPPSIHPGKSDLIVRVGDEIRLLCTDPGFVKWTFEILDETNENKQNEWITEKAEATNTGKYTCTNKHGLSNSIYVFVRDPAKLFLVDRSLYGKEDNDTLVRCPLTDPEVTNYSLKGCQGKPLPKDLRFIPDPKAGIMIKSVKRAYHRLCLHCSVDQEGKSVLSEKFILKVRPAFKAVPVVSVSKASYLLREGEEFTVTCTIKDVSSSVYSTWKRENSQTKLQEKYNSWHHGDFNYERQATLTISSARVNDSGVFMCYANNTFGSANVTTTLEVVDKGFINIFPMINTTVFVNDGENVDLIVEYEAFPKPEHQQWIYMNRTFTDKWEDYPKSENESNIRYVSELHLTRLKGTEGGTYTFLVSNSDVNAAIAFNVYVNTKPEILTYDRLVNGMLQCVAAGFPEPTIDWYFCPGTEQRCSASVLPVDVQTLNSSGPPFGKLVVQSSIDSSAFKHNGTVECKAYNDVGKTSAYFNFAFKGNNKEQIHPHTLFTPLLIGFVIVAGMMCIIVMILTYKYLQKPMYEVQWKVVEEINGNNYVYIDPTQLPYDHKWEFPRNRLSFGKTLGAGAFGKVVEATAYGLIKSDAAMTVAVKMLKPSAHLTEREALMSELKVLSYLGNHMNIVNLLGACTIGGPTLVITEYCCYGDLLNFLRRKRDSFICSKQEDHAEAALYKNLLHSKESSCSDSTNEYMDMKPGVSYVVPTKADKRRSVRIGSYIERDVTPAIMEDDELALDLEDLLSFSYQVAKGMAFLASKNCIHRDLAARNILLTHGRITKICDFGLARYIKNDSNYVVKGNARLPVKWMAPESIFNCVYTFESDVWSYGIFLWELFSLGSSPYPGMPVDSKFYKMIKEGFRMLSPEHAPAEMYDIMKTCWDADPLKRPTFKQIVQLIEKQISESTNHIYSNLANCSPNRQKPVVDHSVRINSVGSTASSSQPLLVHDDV
T26 sequence (P08581 956-1390 M1250T limits assumed): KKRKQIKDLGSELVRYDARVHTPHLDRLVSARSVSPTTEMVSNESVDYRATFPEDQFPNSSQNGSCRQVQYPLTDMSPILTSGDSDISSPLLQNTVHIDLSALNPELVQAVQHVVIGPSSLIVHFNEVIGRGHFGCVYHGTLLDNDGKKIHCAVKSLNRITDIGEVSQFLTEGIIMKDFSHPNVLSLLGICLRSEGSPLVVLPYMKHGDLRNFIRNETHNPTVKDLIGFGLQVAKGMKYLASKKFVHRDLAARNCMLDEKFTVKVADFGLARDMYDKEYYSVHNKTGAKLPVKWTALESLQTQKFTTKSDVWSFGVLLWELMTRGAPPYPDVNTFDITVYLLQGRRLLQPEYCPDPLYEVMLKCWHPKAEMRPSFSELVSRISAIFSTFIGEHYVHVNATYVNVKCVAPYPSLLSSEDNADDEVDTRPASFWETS
T22 sequence (P53778 whole entry): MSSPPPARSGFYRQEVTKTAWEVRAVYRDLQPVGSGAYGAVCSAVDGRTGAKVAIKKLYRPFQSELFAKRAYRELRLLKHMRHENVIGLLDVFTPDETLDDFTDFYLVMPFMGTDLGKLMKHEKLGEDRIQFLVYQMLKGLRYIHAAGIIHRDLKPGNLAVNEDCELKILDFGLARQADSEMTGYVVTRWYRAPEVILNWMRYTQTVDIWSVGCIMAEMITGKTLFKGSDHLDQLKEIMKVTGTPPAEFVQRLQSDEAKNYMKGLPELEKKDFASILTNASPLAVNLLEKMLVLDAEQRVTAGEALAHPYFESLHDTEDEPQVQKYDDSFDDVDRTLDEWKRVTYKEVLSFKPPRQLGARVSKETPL
T30 sequence (Q8TDX7 whole entry): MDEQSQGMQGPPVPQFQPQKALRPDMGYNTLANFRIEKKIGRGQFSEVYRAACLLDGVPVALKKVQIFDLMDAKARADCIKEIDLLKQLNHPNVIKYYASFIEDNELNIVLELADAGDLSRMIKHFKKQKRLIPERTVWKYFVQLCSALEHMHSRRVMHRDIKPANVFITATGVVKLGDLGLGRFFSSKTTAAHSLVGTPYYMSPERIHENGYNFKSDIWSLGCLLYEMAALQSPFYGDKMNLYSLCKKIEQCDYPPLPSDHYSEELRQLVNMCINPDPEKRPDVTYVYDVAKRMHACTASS
T4 sequence (Q13882 whole entry): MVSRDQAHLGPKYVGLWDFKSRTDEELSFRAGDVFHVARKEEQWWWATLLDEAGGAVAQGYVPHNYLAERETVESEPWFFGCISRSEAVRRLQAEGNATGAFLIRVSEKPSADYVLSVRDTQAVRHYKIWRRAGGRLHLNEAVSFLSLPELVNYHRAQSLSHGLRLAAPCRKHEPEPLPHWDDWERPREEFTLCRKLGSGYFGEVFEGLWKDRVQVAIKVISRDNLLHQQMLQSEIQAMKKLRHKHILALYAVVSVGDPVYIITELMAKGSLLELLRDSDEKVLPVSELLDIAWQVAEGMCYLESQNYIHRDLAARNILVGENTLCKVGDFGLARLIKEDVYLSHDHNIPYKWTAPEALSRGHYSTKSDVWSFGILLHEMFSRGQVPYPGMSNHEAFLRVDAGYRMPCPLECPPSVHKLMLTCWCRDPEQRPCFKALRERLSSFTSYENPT
T18 sequence (P22455 22-802 V550L): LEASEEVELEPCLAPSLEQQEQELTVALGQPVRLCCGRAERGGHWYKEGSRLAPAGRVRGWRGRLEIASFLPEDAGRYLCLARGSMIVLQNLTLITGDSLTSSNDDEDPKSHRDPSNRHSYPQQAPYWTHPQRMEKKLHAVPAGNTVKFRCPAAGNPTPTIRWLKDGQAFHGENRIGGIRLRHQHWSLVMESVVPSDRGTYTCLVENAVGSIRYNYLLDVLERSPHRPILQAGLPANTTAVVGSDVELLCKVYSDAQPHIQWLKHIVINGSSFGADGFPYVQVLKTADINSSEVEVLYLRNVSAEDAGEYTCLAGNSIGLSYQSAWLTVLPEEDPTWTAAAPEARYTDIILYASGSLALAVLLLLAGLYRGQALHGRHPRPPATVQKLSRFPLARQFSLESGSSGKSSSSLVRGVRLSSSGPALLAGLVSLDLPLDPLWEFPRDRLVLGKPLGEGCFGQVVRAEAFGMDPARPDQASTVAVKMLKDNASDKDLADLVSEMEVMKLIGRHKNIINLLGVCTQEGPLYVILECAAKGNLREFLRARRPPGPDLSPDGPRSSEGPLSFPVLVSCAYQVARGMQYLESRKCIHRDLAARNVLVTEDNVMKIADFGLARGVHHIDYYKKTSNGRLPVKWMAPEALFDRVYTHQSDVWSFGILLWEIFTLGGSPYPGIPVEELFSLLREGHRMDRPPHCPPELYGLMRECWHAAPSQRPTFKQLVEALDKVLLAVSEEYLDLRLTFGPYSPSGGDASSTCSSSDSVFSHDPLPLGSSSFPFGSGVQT
T8 sequence (Q7KZI7 whole entry): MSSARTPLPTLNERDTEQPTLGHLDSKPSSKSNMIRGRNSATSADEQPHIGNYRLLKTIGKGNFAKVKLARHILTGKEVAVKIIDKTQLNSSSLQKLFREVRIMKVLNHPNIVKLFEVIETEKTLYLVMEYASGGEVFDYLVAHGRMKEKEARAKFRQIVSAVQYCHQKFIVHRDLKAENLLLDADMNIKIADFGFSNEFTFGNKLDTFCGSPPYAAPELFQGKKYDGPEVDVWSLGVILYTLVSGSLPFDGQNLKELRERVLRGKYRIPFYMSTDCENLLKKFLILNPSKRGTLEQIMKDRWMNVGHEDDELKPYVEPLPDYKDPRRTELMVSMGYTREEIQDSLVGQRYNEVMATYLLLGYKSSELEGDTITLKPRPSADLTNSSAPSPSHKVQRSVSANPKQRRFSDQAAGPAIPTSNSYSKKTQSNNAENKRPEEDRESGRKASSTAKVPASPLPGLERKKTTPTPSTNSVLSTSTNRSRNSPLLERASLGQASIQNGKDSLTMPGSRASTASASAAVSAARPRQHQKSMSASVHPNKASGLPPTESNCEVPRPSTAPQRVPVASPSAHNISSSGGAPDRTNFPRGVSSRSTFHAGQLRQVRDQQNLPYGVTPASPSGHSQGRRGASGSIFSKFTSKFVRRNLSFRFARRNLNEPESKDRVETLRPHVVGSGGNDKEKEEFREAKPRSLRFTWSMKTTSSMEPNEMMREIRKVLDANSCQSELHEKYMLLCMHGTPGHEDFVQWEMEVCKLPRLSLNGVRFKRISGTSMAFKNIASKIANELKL
T27 sequence (Q9UPE1 whole entry): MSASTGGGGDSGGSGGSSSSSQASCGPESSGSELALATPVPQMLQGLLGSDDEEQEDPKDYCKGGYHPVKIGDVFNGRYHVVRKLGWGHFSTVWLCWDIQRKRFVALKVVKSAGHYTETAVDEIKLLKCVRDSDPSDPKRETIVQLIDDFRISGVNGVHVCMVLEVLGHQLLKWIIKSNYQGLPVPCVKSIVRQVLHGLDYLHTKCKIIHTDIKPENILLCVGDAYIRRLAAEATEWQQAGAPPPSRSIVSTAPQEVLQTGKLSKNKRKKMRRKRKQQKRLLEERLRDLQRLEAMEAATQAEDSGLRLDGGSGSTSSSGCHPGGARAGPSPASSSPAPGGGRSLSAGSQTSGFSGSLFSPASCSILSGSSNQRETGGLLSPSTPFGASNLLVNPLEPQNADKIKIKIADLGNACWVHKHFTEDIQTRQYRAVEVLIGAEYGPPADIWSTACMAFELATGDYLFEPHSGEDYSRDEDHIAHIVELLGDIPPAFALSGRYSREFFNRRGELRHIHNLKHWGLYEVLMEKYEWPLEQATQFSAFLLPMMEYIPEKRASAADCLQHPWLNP

`C[C@@H]1CC[C@H]2C(C)(C)CCC[C@]2(C)c2c1oc1c(C=O)c(O)c(O)cc21` [LG-1, liphagal] was tested, and the inhibition at 10 µM [1] was 6.9%, the inhibition at 10 µM [2] was 24.5% and the inhibition at 10 µM [3] was -1.2%. It also gave an IC50 [4] of 4.12 µM, an inhibition at 10 µM [5] of 52.5% and an inhibition at 10 µM [6] of 10.5%. The inhibition at 10 µM [7] was 3%, the inhibition at 10 µM [8] was 26.4% and the inhibition at 10 µM [9] was 2.7%. The inhibition at 10 µM [10] was 9.3%, the inhibition at 10 µM [11] was 10.4% and the inhibition at 10 µM [12] was 1.8%. For the same compound, the inhibition at 10 µM [13] was 7.4%, the inhibition at 10 µM [14] was 9.3% and the inhibition at 10 µM [15] was 1.9%. For the same compound, the inhibition at 10 µM [16] was 12.3%, the inhibition at 10 µM [17] was -1.9% and the inhibition at 10 µM [18] was 4.8%. The inhibition at 10 µM [19] was 7.8%, the inhibition at 10 µM [20] was 6.2% and the inhibition at 10 µM [21] was -18%. The inhibition at 10 µM [22] was 10.7%, the inhibition at 10 µM [23] was -5.6% and the inhibition at 10 µM [24] was -1.3%. For the same compound, the inhibition at 10 µM [25] was 21.8%, the inhibition at 10 µM [26] was 3.5% and the inhibition at 10 µM [27] was -0.2%. It also gave an inhibition at 10 µM [28] of 9.3%, an inhibition at 10 µM [29] of 2.5% and an inhibition at 10 µM [30] of -10.8%. The inhibition at 10 µM [31] was 24.4%, the inhibition at 10 µM [32] was 1.1% and the inhibition at 10 µM [33] was 6.2%.
